Patent US10130633B2, “Compounds” (BAYER PHARMA AKTIENGESELLSCHAFT, priority 2013, dated 2018)
Counter-ions that a name gives are not always drawn.

How the values were obtained:
[1] = system: HCT116 FOP control reporter cell line; experiment: HCT116 FOPFlash control reporter assay (FOP control vector, non-functional TCF elements); type: cell-based; settings: HCT116 FOP control reporter cells, 36 hours incubation, luciferase expression
Source text: In a parallel approach, HCT116 cells were cotransfected with the FOP control vector and pcDNA3. The FOP vector is identical to the TOP construct, but it contains instead of functional TCF elements a randomized, non-functional sequence. For this transfection a stable transfected cell line was generated as well.

[2] = system: constitutive active colorectal cancer cell (CRC) Wnt pathway; experiment: HCT116 TOPFlash cellular reporter assay (Super TopFlash luciferase), constitutive active Wnt pathway; type: cell-based; settings: HCT116 TOP reporter cells, 36 hours incubation, luciferase expression
Description: In order to discover and characterize small molecules which inhibit the constitutive active colorectal cancer cell (CRC) Wnt pathway, a cellular reporter assay was employed. […] Stable transfectants were generated by cotransfection with pcDNA3 and selection of stable transfected cells with 1 mg/ml G418.

Structure (SMILES) | IC50 ([1]; Homo sapiens, HCT-116, 36 h) [µM] | IC50 ([2]; Homo sapiens, HCT-116, 36 h) [µM] | IC50 [1] [µM] | IC50 [2] [µM]
CN1CCCN(CC(=O)Nc2cc(C(=O)Nc3nnc(-c4ccccc4)s3)ccc2OC(F)(F)F)CC1 [Example 168, 3-{[(4-methyl-1,4-diazepan-1-yl)acetyl]amino}-N-(5-phenyl-1,3,4-thiadiazol-2-yl)-4-(trifluoromethoxy)benzamide] | 12 | 1.08 |  | 
O=C(CN1CCCOCC1)Nc1cc(C(=O)Nc2nnc(-c3ccccc3)s2)ccc1OC(F)(F)F [Example 169, 3-[(1,4-oxazepan-4-ylacetyl)amino]-N-(5-phenyl-1,3,4-thiadiazol-2-yl)-4-(trifluoromethoxy)benzamide] | ≥ 50 | 0.066 |  | 
O=C(CN1CCOCC1)Nc1cc(C(=O)Nc2nnc(-c3ccccc3)s2)ccc1OC1CC1 [Example 170, 4-(cyclopropyloxy)-3-[(morpholin-4-ylacetyl)amino]-N-(5-phenyl-1,3,4-thiadiazol-2-yl)benzamide] | ≥ 50 | 0.118 |  | 
CN1CCN(C2(C(=O)Nc3cc(C(=O)Nc4nnc(-c5ccccc5)s4)ccc3OC3CC3)CC2)CC1 [Example 171, 4-(cyclopropyloxy)-3-({[1-(4-methylpiperazin-1-yl)cyclopropyl]carbonyl}amino)-N-(5-phenyl-1,3,4-thiadiazol-2-yl)benzamide] | ≥ 50 | 0.102 |  | 
CCN1CCN(CC(=O)Nc2cc(C(=O)Nc3nnc(-c4ccccc4)s3)ccc2OC(F)(F)F)CC1 [Example 172, 3-{[(4-ethylpiperazin-1-yl)acetyl]amino}-N-(5-phenyl-1,3,4-thiadiazol-2-yl)-4-(trifluoromethoxy)benzamide] | ≥ 50 | 0.855 |  | 
CN1CCN(CC(=O)Nc2cc(C(=O)Nc3nnc(-c4ccccc4)s3)ccc2Cl)CC1 [Example 173, 4-chloro-3-{[(4-methylpiperazin-1-yl)acetyl]amino}-N-(5-phenyl-1,3,4-thiadiazol-2-yl)benzamide] | ≥ 50 | 0.52 |  | 
CN1CCN(CC(=O)Nc2cc(C(=O)Nc3nnc(-c4ccccc4)s3)ccc2C#N)CC1 [Example 174, 4-cyano-3-{[(4-methylpiperazin-1-yl)acetyl]amino}-N-(5-phenyl-1,3,4-thiadiazol-2-yl)benzamide] | ≥ 50 | 3.8 |  | 
Cc1ccccc1-c1nnc(NC(=O)c2ccc(OC(F)F)c(NC(=O)CN3CCN(C)CC3)c2)s1 [Example 175, 4-(difluoromethoxy)-N-[5-(2-methylphenyl)-1,3,4-thiadiazol-2-yl]-3-{[(4-methylpiperazin-1-yl)acetyl]amino}benzamide] | 7.1 | 0.215 |  | 
COCc1ccc(C(=O)Nc2nnc(-c3ccccc3C)s2)cc1NC(=O)CN1CCOCC1 [Example 176, 4-(methoxymethyl)-N-[5-(2-methylphenyl)-1,3,4-thiadiazol-2-yl]-3-[(morpholin-4-ylacetyl)amino]benzamide] | ≥ 50 | 0.315 |  | 
COCc1ccc(C(=O)Nc2nnc(-c3ccccc3C)s2)cc1NC(=O)CN1CCN(C)CC1 [Example 177, 4-(methoxymethyl)-N-[5-(2-methylphenyl)-1,3,4-thiadiazol-2-yl]-3-{[(4-methylpiperazin-1-yl)acetyl]amino}benzamide hydrochloride (1:1)] | 35 | 0.46 |  | 
CC(C(=O)Nc1cc(C(=O)Nc2ccc(-c3cc(F)cc(F)c3)nc2)ccc1OC(F)(F)F)N1CC2CCC(C1)O2 (centres unmarked) [Example 178, N-[6-(3,5-difluorophenyl)pyridin-3-yl]-3-{[2-(8-oxa-3-azabicyclo[3.2.1]oct-3-yl)propanoyl]amino}-4-(trifluoromethoxy)benzamide] |  |  | 3.8 | 0.0424
CN(C)C1(C(=O)Nc2cc(C(=O)Nc3ccc(-c4ccccc4F)nc3)ccc2OC(F)(F)F)CC1 [Example 179, 3-({[1-(dimethylamino)cyclopropyl]carbonyl}amino)-N-[6-(2-fluorophenyl)pyridin-3-yl]-4-(trifluoromethoxy)benzamide] | ≥ 50 | 0.362 |  | 
CC(C(=O)Nc1cc(C(=O)Nc2ccc(-c3cccc(F)c3)nc2)ccc1OC(F)(F)F)N1CCOCC1 (centres unmarked) [Example 182, N-[6-(3-fluorophenyl)pyridin-3-yl]-3-{[2-(morpholin-4-yl)propanoyl]amino}-4-(trifluoromethoxy)benzamide] | 44 |  |  | 0.288
CC(C(=O)Nc1cc(C(=O)Nc2ccc(-c3cccc(F)c3)nc2)ccc1OC(F)(F)F)N1CCOCC1 (centres unmarked) [Example 183, N-[6-(3-fluorophenyl)pyridin-3-yl]-3-{[2-(morpholin-4-yl)propanoyl]amino}-4-(trifluoromethoxy)benzamide] |  |  | ≥ 50 | 0.029
O=C(CN1C[C@@H]2C[C@H]1CO2)Nc1cc(NC(=O)c2ccc(-c3cc(F)cc(F)c3)nc2)ccc1OC(F)(F)F [Example 184, 6-(3,5-difluorophenyl)-N-[3-{[(1S,4S)-2-oxa-5-azabicyclo[2.2.1]hept-5-ylacetyl]amino}-4-(trifluoromethoxy)phenyl] nicotinamide] | 11 | 0.196 |  | 
CC(C(=O)Nc1cc(NC(=O)c2ccc(-c3cc(F)cc(F)c3)nc2)ccc1OC(F)(F)F)N1CC2CCC(C1)O2 (centres unmarked) [Example 186, 6-(3,5-difluorophenyl)-N-[3-{[2-(8-oxa-3-azabicyclo[3.2.1]oct-3-yl)propanoyl]amino}-4-(trifluoromethoxy)phenyl] nicotinamide] |  |  | 5.4 | 0.0955
CC(C(=O)Nc1cc(NC(=O)c2ccc(-c3cc(F)cc(F)c3)nc2)ccc1OC(F)(F)F)N1CCOCC1 (centres unmarked) [Example 187, 6-(3,5-difluorophenyl)-N-[3-{[2-(morpholin-4-yl)propanoyl]amino}-4-(trifluoromethoxy)phenyl] nicotinamide] |  | 0.175 | 42 | 
CC(C(=O)Nc1cc(NC(=O)c2ccc(-c3cccc(F)c3)nc2)ccc1OC(F)(F)F)N1CC2CCC(C1)O2 (centres unmarked) [Example 188, 6-(3-fluorophenyl)-N-[3-{[2-(8-oxa-3-azabicyclo[3.2.1]oct-3-yl)propanoyl]amino}-4-(trifluoromethoxy)phenyl] nicotinamide] |  |  | 5.5 | 0.12
CC(C(=O)Nc1cc(NC(=O)c2ccc(-c3cccc(F)c3)nc2)ccc1OC(F)(F)F)N1CCOCC1 (centres unmarked) [Example 189, 6-(3-fluorophenyl)-N-[3-{[2-(morpholin-4-yl)propanoyl]amino}-4-(trifluoromethoxy)phenyl] nicotinamide] |  | 0.138 | 10 | 
CC(C(=O)Nc1cc(NC(=O)c2ccc(-c3cccc(F)c3)nc2)ccc1OC(F)(F)F)N1CCOCC1 (centres unmarked) [Example 190, 6-(3-fluorophenyl)-N-[3-{[2-(morpholin-4-yl)propanoyl]amino}-4-(trifluoromethoxy)phenyl] nicotinamide] |  |  | 9.5 | 0.087
O=C(CN1CCOCC1)Nc1cc(C(=O)Nc2nnc(-c3ccccc3)o2)ccc1OC(F)(F)F [Example 191, 3-[(morpholin-4-ylacetyl)amino]-N-(5-phenyl-1,3,4-oxadiazol-2-yl)-4-(trifluoromethoxy)benzamide] | ≥ 50 | 4.1 |  | 
CC(C(=O)Nc1cc(C(=O)Nc2ccc(-c3cccc(F)c3)nc2)ccc1OC(F)(F)F)N1C[C@@H]2C[C@H]1CO2 (stereo partly drawn) [Example 192, N-[6-(3-fluorophenyl)pyridin-3-yl]-3-({2-[(1S,4S)-2-oxa-5-azabicyclo[2.2.1]hept-5-yl]propanoyl}amino)-4-(trifluoromethoxy)benzamide] | 12.4 | 0.135 |  | 
CC(C(=O)Nc1cc(C(=O)Nc2ccc(-c3cc(F)cc(F)c3)nc2)ccc1OC(F)(F)F)N1CC2CCC(C1)O2 (centres unmarked) [Example 194, N-[6-(3,5-difluorophenyl)pyridin-3-yl]-3-{[2-(8-oxa-3-azabicyclo[3.2.1]oct-3-yl)propanoyl]amino}-4-(trifluoromethoxy)benzamide] |  |  | 35 | 0.0399
CC(C(=O)Nc1cc(C(=O)Nc2ccc(-c3ccc(O)cc3)nc2)ccc1OC(F)(F)F)N1CCOCC1 (centres unmarked) [Example 195, N-[6-(4-hydroxyphenyl)pyridin-3-yl]-3-{[2-(morpholin-4-yl)propanoyl]amino}-4-(trifluoromethoxy)benzamide] | ≥ 50 | 0.222 |  | 
CC(C(=O)Nc1cc(C(=O)Nc2ccc(-c3ccccc3F)nc2)ccc1OC(F)(F)F)N1CCN(C2CC2)CC1 (centres unmarked) [Example 196, 3-{[2-(4-cyclopropylpiperazin-1-yl)propanoyl]amino}-N-[6-(2-fluorophenyl)pyridin-3-yl]-4-(trifluoromethoxy)benzamide] | ≥ 50 | 0.143 |  | 
CN1CCN(CC(=O)Nc2cc(C(=O)Nc3ccc(-c4ccccc4F)nc3)ccc2OC(F)(F)F)CC1 [Example 197, N-[6-(2-fluorophenyl)pyridin-3-yl]-3-{[(4-methylpiperazin-1-yl)acetyl]amino}-4-(trifluoromethoxy)benzamide] | 34 | 1.2 |  | 
CC(C(=O)Nc1cc(NC(=O)c2ccc(-c3cc(F)cc(F)c3)nc2)ccc1OC(F)(F)F)N1C[C@@H]2C[C@H]1CO2 (stereo partly drawn) [Example 198, 6-(3,5-difluorophenyl)-N-[3-({2-[(1S,4S)-2-oxa-5-azabicyclo[2.2.1]hept-5-yl]propanoyl}amino)-4-(trifluoromethoxy)phenyl] nicotinamide] | 15 | 0.144 |  | 
CC(C(=O)Nc1cc(NC(=O)c2ccc(-c3cccc(F)c3)nc2)ccc1OC(F)(F)F)N1C[C@@H]2C[C@H]1CO2 (stereo partly drawn) [Example 199, 6-(3-fluorophenyl)-N-[3-({2-[(1S,4S)-2-oxa-5-azabicyclo[2.2.1]hept-5-yl]propanoyl}amino)-4-(trifluoromethoxy)phenyl] nicotinamide] | 8.8 | 0.0717 |  | 
